What all share (assay): NCI anticancer screen, dose series, 48 h
Assay [1] relates to OVCAR-5.
The test system of assay [2] is TK-10.
The subject of assay [3] is OVCAR-4.
Assay [4] deals with MDA-MB-435.
The test system of assay [5] is HT-29.
In assay [6] the test system is UACC-62.
Assay [7] has as its system PC-3.
The test system of assay [8] is RPMI-8226.
Assay [9] relates to SK-MEL-2.
Assay [10] deals with SF-539.
In assay [11] the test system is SF-295.
Assay [12] relates to Hs-578T.
The subject of assay [13] is HCC 2998.
Assay [14] relates to Malme-3M.
The test system of assay [15] is OVCAR-8.
The test system of assay [16] is IGROV-1.
Assay [17] concerns CCRF-CEM.
Assay [18] deals with MCF7.
In assay [19] the test system is HOP-92.
Assay [20] deals with CAKI-1.

Data on ten molecules can be found in ChEMBL document CHEMBL1201862, “PubChem BioAssay data set” (2004).

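Tested at 5 concentrations; 48 h exposure; 96-well plates; endpoints linearly interpolated, else capped at highest concentration. Here, GI50 denotes the concentration required for 50% inhibition of growth.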 Calls of active or inactive are those of the source. No stated cut-off is given here; in the data, active = GI50 up to about 1.1 µM and inactive = higher. A value given as a limit tells only on which side of the number the result lay.

With `O=C(O)C1=C/C(=C(/c2ccccc2)c2cc(C(=O)O)c(O)c3ccccc23)c2ccccc2C1=O`, the GI50 in assay [1], in assay [2], in assay [3], in [4], in assay [5] and in assay [6] was > 100 µM (inactive) in each case. The GI50 in [7], in assay [8], in assay [9], in [10], in assay [11] and in assay [12] was > 100 µM (inactive) throughout. The GI50 in [13] is > 100 µM (inactive); in assay [14], > 100 µM (inactive); in [15] it was > 100 µM (inactive); in [16], > 100 µM (inactive); in [17], < 0.01 µM (active); in [18], > 100 µM (inactive). Further, the GI50 in assay [19] and in assay [20] was > 100 µM (inactive) each time.
In the case of `CC(=O)OCC1OC(c2c(OC(C)=O)cc(C)c3c(=O)cc(/C(C(C)=O)=C(\C)O)oc23)C(OC(C)=O)C(OC(C)=O)C1OC(C)=O` (stereo not given), the GI50 in assay [1], in assay [2], in assay [3], in [4], in assay [5] and in assay [6] was > 100 µM (inactive) throughout. For the same molecule, the GI50 is > 100 µM (inactive) in assay [7]; > 100 µM (inactive) in assay [8]; > 100 µM (inactive) in [9]; > 100 µM (inactive) in [10]; > 100 µM (inactive) in [11]; 84.9 µM (inactive) in assay [12]. In addition, the GI50 in [13], in assay [14], in [15], in assay [16], in [17] and in assay [18] was > 100 µM (inactive) in each case. Besides, the GI50 in assay [19] and in assay [20] was > 100 µM (inactive) throughout.
In the case of `O=[N+]([O-])c1cc2ccc(N(CCO)CCO)nc2nc1N(CCO)CCO`, the GI50 in assay [1], in assay [2], in assay [3], in assay [4], in assay [5] and in [6] was > 100 µM (inactive) in each case. In addition, the GI50 in assay [7], in assay [8], in assay [9], in assay [10], in assay [11] and in assay [12] was > 100 µM (inactive) throughout. Further, the GI50 in assay [13], in assay [14], in assay [15], in assay [16], in assay [17] and in assay [18] was > 100 µM (inactive) throughout. Also, the GI50 in [19] and in [20] was > 100 µM (inactive) each time.
With `CC1(C)CN=C(Nc2cccc(C(F)(F)F)c2)S1`, the GI50 in assay [1], in [2], in [3], in [4], in [5] and in assay [6] was > 100 µM (inactive) throughout. For the same molecule, the GI50 in assay [7], in assay [8], in assay [9], in [10], in [11] and in assay [12] was > 100 µM (inactive) in each case. The GI50 in assay [13], in assay [14], in assay [15], in assay [16], in assay [17] and in [18] was > 100 µM (inactive) each time. For the same molecule, the GI50 in assay [19] and in assay [20] was > 100 µM (inactive) throughout.
Consider `COc1ccc(C(=O)N(C(=S)OCCOc2ccccc2)c2ccccc2)cc1`, for which the GI50 in [1] was 88.3 µM (inactive); in assay [2], 61 µM (inactive); in [3], 24.5 µM (inactive); in assay [4] it was 31.7 µM (inactive); in assay [5] it was 40.4 µM (inactive); in assay [6], 48 µM (inactive). The GI50 in assay [7] was 35.4 µM (inactive); in [8], 14.6 µM (inactive); in [9] it was 22.9 µM (inactive); in assay [10], 40.3 µM (inactive); in assay [11], 29.2 µM (inactive); in assay [12] it was 65.2 µM (inactive). Besides, the GI50 in assay [13] was 34.4 µM (inactive); in assay [14], 28.4 µM (inactive); in [15], 52.2 µM (inactive); in [16] it was > 100 µM (inactive); in assay [17], 14.9 µM (inactive); in assay [18], 42 µM (inactive). In addition, the GI50 in assay [19] is 20 µM (inactive); in assay [20], 47 µM (inactive).
Regarding `COC(=O)C1=C(C)NC(CF)=C(C(=O)OC)C1c1cccc2c(=O)c3ccccc3oc12` (stereo not given), the GI50 was > 100 µM (inactive) in [1]; 35.8 µM (inactive) in [2]; 10.2 µM (inactive) in assay [3]; 3.15 µM (inactive) in assay [4]; 3.58 µM (inactive) in assay [5]; 10.6 µM (inactive) in assay [6]. The GI50 in assay [7] was 2.69 µM (inactive); in assay [8], 69.3 µM (inactive); in [9], 20.4 µM (inactive); in [10], 24.3 µM (inactive); in [11], 3.31 µM (inactive); in assay [12] it was 9.62 µM (inactive). The GI50 in [13] was 6.59 µM (inactive); in assay [14] it was 11.2 µM (inactive); in assay [15], 19.9 µM (inactive); in assay [16], 2.37 µM (inactive); in [17], 5.28 µM (inactive); in assay [18], 4.94 µM (inactive). In addition, the GI50 in assay [19] is 3.88 µM (inactive); in assay [20] it was 11.9 µM (inactive).
With `CCOC(=O)[C@@]1(C)CC(O)C(=O)N1C` (stereo not given in full), the GI50 in assay [1], in assay [2], in assay [3], in assay [4], in assay [5] and in [6] was > 100 µM (inactive) in each case. For the same molecule, the GI50 in [7], in assay [8], in assay [9], in assay [10], in assay [11] and in assay [12] was > 100 µM (inactive) each time. Also, the GI50 in [13], in assay [14], in assay [15], in assay [16], in assay [17] and in assay [18] was > 100 µM (inactive) in each case. Also, the GI50 in assay [19] and in [20] was > 100 µM (inactive) each time.
With `CC(=O)NC1C(OCc2ccccc2)OC(CO)C(O)C1OC(C)C(=O)NC(C(=O)NC(CCC(=O)Nc1ccc2c(c1)CN1C(=O)c3ccccc3C1=N2)C(N)=O)C(C)C` (stereo not given), the GI50 in assay [1], in [2], in assay [3], in assay [4], in assay [5] and in assay [6] was > 100 µM (inactive) throughout. In addition, the GI50 in [7], in assay [8], in assay [9], in assay [10], in assay [11] and in assay [12] was > 100 µM (inactive) throughout. Besides, the GI50 in assay [13], in assay [14], in assay [15], in [16], in [17] and in assay [18] was > 100 µM (inactive) throughout. The GI50 in [19] and in assay [20] was > 100 µM (inactive) throughout.
With `O=C(C(=O)n1ccc2ccccc21)n1ccc2ccccc21`, the GI50 in assay [1] is > 100 µM (inactive); in assay [2] it was > 100 µM (inactive); in assay [3], 29 µM (inactive); in assay [4], > 100 µM (inactive); in assay [5], > 100 µM (inactive); in [6], 57.9 µM (inactive). In addition, the GI50 in assay [7] is > 100 µM (inactive); in assay [8] it was > 100 µM (inactive); in assay [9] it was > 100 µM (inactive); in assay [10], 37 µM (inactive); in assay [11] it was 37.6 µM (inactive); in assay [12] it was 27.5 µM (inactive). Also, the GI50 was > 100 µM (inactive) in assay [13]; > 100 µM (inactive) in assay [14]; 59.7 µM (inactive) in [15]; 2.12 µM (inactive) in [16]; 38.7 µM (inactive) in [17]; > 100 µM (inactive) in [18]. Also, the GI50 in assay [19] was 34 µM (inactive); in [20], > 100 µM (inactive).
In the case of `C[C@H](CCC1=NCCN1)[C@H]1CC[C@H]2[C@@H]3[C@H](O)C[C@@H]4C[C@H](O)CC[C@]4(C)[C@H]3CC[C@]12C`, the GI50 in [1] is 14.5 µM (inactive); in assay [2], 13.8 µM (inactive); in [3], 14.9 µM (inactive); in [4], 13.7 µM (inactive); in assay [5], 2.54 µM (inactive); in assay [6], 11.4 µM (inactive). For the same molecule, the GI50 in assay [7] is 8.85 µM (inactive); in assay [8] it was 14.7 µM (inactive); in assay [9] it was 16.3 µM (inactive); in assay [10], 12.9 µM (inactive); in assay [11], 15.5 µM (inactive); in assay [12] it was 12.4 µM (inactive). The GI50 in assay [13] was 15.2 µM (inactive); in assay [14], 15.6 µM (inactive); in assay [15], 15.6 µM (inactive); in [16], 11.7 µM (inactive); in assay [17] it was 12.7 µM (inactive); in assay [18] it was 15.2 µM (inactive). In addition, the GI50 in assay [19] is 8.89 µM (inactive); in assay [20], 24 µM (inactive).
